Measurements published in ChEMBL document CHEMBL4265914, “Discovery of selective urokinase plasminogen activator (uPA) inhibitors as a potential treatment for multiple sclerosis” (Bioorg Med Chem Lett, 2018).
Active and inactive are the calls of the source. The rule behind the calls is not given here.

Experiments:
[1] = molecular target: Tissue-type plasminogen activator (Homo sapiens, UniProt P00750); experiment: Inhibition of human tPA
[2] = molecular target: Urokinase-type plasminogen activator (Homo sapiens, UniProt P00749); experiment: Inhibition of human uPA
Plasminogen [3] = molecular target: Plasminogen (Homo sapiens, UniProt P00747); experiment: Inhibition of human plasmin
[4] = Cmax in rat at 2 mg/kg, po; assay type: ADME, organism-based; set-up: dose 2 mg/kg, route oral; settings: in vivo
[5] = Clearance in rat at 2 mg/kg, po; assay type: ADME, organism-based; settings: in vivo
Rattus norvegicus [6] = experiment: Volume of distribution in rat at 2 mg/kg, po; assay type: ADME, organism-based; settings: in vivo
[7] = Oral bioavailability in rat at 2 mg/kg; assay type: ADME, organism-based; settings: in vivo
[8] = Half life in rat at 2 mg/kg, po; assay type: ADME, organism-based; settings: in vivo
Rattus norvegicus [9] = experiment: Total AUC in rat at 2 mg/kg, po; assay type: ADME, organism-based; set-up: dose 2 mg/kg, route oral, time AUCmax; settings: in vivo
Plasminogen [10] = molecular target: Plasminogen (Mus musculus, UniProt P20918); experiment: Inhibition of mouse plasmin
Mus musculus [11] = experiment: Prevention of multiple sclerosis development in chronic SJL mouse EAE model at 10 to 25 mg/kg, po bid; assay type: functional, organism-based
Mus musculus [12] = experiment: Prevention of multiple sclerosis development in chronic SJL mouse EAE model at 50 mg/kg, po bid; assay type: functional, organism-based
[13] = molecular target: Tissue-type plasminogen activator (Mus musculus, UniProt P11214); experiment: Inhibition of mouse tPA
Mus musculus [14] = experiment: Prevention of multiple sclerosis development in acute SJL mouse EAE model at 25 to 50 mg/kg, po bid; assay type: functional, organism-based
[15] = molecular target: Urokinase-type plasminogen activator (Mus musculus, UniProt P06869); experiment: Inhibition of mouse uPA
Urokinase-type plasminogen activator (Mus musculus, UniProt P06869), sequence (P06869 21-178 limits assumed): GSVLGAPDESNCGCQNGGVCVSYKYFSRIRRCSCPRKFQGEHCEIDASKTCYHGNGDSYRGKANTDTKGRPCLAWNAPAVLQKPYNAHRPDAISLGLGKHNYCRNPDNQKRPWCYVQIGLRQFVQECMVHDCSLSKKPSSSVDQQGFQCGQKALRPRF
Urokinase-type plasminogen activator (Mus musculus, UniProt P06869), sequence (P06869 180-433 limits assumed): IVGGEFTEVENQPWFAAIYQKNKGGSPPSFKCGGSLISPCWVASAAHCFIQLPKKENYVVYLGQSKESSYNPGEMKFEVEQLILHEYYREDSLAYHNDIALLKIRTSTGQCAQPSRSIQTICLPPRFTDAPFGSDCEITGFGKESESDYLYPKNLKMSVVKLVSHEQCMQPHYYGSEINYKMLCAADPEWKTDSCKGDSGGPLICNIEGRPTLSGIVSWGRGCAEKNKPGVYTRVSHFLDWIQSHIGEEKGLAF

Tissue-type plasminogen activator (Homo sapiens, UniProt P00750), sequence (P00750 whole entry): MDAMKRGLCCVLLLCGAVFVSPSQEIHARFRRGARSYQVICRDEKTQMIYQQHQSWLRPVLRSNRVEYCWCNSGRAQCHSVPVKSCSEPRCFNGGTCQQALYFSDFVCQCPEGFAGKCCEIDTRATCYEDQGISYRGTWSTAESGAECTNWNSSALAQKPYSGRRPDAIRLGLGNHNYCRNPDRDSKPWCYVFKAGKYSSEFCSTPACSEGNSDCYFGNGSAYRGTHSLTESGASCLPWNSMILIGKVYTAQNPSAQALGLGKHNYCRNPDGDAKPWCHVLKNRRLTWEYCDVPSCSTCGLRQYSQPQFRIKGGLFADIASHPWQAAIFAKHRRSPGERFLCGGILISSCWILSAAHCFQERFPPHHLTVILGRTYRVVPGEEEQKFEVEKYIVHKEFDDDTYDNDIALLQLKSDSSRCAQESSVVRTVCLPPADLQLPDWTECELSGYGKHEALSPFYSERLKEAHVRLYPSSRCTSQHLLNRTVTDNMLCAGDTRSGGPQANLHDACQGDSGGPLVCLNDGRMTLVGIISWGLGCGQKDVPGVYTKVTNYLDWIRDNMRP
Plasminogen (Homo sapiens, UniProt P00747), sequence (P00747 97-580 limits assumed): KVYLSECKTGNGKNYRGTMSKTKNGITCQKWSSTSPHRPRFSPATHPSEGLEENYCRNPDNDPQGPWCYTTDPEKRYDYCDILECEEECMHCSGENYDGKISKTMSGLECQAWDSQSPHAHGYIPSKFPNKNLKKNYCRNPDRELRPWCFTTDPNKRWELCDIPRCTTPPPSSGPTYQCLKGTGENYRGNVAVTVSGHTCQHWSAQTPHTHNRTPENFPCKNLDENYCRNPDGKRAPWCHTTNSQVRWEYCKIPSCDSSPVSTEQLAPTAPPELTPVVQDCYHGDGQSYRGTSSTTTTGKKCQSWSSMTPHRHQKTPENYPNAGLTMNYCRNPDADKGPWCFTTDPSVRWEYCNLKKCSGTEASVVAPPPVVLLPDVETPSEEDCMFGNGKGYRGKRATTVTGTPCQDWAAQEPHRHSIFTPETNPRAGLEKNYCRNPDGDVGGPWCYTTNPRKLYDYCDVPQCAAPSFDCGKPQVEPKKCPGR
Plasminogen (Homo sapiens, UniProt P00747), sequence (P00747 581-810 limits assumed): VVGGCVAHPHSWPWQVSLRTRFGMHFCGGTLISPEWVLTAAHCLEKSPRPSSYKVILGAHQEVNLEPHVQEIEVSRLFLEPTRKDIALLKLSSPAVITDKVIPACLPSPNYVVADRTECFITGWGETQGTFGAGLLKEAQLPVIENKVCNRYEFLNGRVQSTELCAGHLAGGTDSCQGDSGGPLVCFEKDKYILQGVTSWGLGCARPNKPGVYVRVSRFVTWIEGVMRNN
Plasminogen (Mus musculus, UniProt P20918), sequence (P20918 98-581 limits assumed): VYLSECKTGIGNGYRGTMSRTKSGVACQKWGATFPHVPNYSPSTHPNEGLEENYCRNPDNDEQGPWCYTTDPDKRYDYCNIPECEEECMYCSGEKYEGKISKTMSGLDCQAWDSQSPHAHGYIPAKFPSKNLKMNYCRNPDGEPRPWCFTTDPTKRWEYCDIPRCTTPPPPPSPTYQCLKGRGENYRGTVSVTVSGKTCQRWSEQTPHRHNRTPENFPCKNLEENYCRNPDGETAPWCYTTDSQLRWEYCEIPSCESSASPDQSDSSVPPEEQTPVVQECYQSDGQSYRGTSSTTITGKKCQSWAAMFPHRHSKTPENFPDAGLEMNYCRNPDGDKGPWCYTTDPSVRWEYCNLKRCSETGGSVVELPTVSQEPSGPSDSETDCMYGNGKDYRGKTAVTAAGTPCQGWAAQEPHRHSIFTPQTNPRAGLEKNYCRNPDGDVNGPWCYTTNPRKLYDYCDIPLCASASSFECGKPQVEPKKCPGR
Plasminogen (Mus musculus, UniProt P20918), sequence (P20918 582-812 limits assumed): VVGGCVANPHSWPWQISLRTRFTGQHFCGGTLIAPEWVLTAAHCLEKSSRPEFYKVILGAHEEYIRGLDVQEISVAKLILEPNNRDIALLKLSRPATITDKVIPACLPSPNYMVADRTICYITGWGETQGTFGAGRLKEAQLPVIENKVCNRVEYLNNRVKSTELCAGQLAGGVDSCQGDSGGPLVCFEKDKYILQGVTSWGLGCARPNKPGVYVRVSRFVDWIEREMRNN
Tissue-type plasminogen activator (Mus musculus, UniProt P11214), sequence (P11214 whole entry): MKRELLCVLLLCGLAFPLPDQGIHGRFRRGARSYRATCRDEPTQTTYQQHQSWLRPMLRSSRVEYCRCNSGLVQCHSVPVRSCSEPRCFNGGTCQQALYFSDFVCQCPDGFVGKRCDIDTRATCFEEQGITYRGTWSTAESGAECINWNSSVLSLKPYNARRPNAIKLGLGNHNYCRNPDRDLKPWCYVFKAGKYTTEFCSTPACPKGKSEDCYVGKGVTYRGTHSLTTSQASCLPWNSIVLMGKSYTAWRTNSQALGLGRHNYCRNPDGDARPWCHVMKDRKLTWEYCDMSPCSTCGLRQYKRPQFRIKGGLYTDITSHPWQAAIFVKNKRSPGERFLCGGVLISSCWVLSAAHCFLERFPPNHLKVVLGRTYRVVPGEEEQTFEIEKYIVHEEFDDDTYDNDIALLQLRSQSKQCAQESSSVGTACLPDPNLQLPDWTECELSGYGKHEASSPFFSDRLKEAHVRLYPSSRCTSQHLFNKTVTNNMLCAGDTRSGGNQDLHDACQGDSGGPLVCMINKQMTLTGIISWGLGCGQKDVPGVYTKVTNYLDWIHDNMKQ

SMILES: CC[C@H](Oc1nc(Oc2cccc(-c3cccc(CN)c3)c2)c(F)cc1F)C(=O)O
- IC50 [1]: > 30 µM
- IC50 [2]: 7.26 µM
- IC50 (Plasminogen [3]): > 30 µM

SMILES: Cc1cc(Oc2nc(O[C@@H](C(=O)O)C(C)(C)C)c(F)cc2F)cc(-c2cccc(CN)c2)c1
- IC50 [1]: 0.47 µM
- IC50 [2]: 0.051 µM
- IC50 (Plasminogen [3]): 1.9 µM

SMILES: CC[C@@H](Oc1nc(Oc2cccc(-c3cccc(CN)c3)c2)c(F)cc1F)C(=O)O
- Cmax [4]: 640 ng/mL
- IC50 [1]: 1.6 µM
- CL/F [5]: 8.4 mL/min/kg
- Vd (Rattus norvegicus [6]): 0.76 L/kg
- bioavailability [7]: 55%
- half-life [8]: 2.8 h
- IC50 [2]: 0.237 µM
- IC50 (Plasminogen [3]): 1.85 µM
- AUC (Rattus norvegicus [9]): 2200 ng·h/mL

SMILES: CC(C)(C)[C@@H](Oc1nc(Oc2cc(C#N)cc(-c3cccc(CN)c3)c2)c(F)cc1F)C(=O)O
- IC50 [1]: 5.7 µM
- IC50 [2]: 0.034 µM
- IC50 (Plasminogen [3]): 5.4 µM

SMILES: NCc1cccc(-c2cccc(Oc3nc(OCC(=O)O)c(F)cc3F)c2)c1
- IC50 [2]: 3.28 µM

SMILES: CC(C)(C)[C@@H](Oc1nc(Oc2cccc(-c3cccc(CN)c3)c2)c(F)cc1F)C(=O)O
- IC50 [1]: 1.45 µM
- IC50 [2]: 0.084 µM
- IC50 (Plasminogen [3]): 5.45 µM

SMILES: COc1cc(Oc2nc(O[C@@H](C(=O)O)C(C)(C)C)c(F)cc2F)cc(-c2cccc(CN)c2)c1
- IC50 [1]: 1.85 µM
- IC50 [2]: 0.023 µM
- IC50 (Plasminogen [3]): 3.32 µM

SMILES: CC[C@@H](Oc1nc(Oc2cc(C)cc(-c3cccc(CN)c3)c2)c(F)cc1F)C(=O)O
- IC50 [1]: 1.58 µM
- CL/F [5]: 4 mL/min/kg
- IC50 (Plasminogen [10]): 1.6 µM
- Vd (Rattus norvegicus [6]): 0.6 L/kg
- bioavailability [7]: 30%
- half-life [8]: 2.2 h
- Activity (Mus musculus [11]): inactive
- IC50 [2]: 0.079 µM
- Activity (Mus musculus [12]): Active
- IC50 [13]: 0.91 µM
- Activity (Mus musculus [14]): Active
- IC50 (Plasminogen [3]): 1.33 µM
- IC50 [15]: 0.41 µM
- AUC (Rattus norvegicus [9]): 13200 ng·h/mL

SMILES: C[C@@H](Oc1nc(Oc2cccc(-c3cccc(CN)c3)c2)c(F)cc1F)C(=O)O
- IC50 [2]: 0.36 µM
- IC50 (Plasminogen [3]): 5.1 µM
